Measurements: patent US12371428B2 (Exelixis, Inc., priority 2019, dated 2025)
Where a name gives a salt, the structure may show the parent alone. Read-outs that look alike come from different tables or passages of the source.

How the values were obtained:
[1] = molecular target: Human MER (residues 528-999) (Homo sapiens (Human), UniProt Q12866); test: Human Mer kinase assay, HTRF KinEase (Example C-2); assay type: biochemical; conditions: protocol of Example C-2 (other compounds)
Description: (§1) Kinase activity and compound inhibition were also investigated using the HTRF® KinEase assay (Cisbio Cat #62TKOPEB) per manufacturer's instructions. In short, compounds were delivered in 300 nL volumes at 10 different concentrations in DMSO (3% final) to empty 384-well assay plates (Corning cat #3824). A mixture of enzyme, […] biotynlated peptide substrate, and buffer in 10 μL volume was added. The assay was started upon the addition of ATP (at Km). The 10 μL reaction was incubated at room temperature. The reaction was stopped upon the addition of detection buffer containing streptavidin-XL665 ([…]) and TK antibody-Eu3+([…]). After a 60 min incubation at room temperature, the fluorescence at 665 nm and 620 nm was read on an Envision microplate reader (Perkin Elmer).
(§2) Kinase activity normalized to DMSO (100% activity) and reference compound at […] and (0% activity) was calculated using the fluorescence ratio […]. IC50 values were calculated by nonlinear regression analysis using a 4-parameter logistic curve fit in ActivityBase XE (IDBS).
Example C-2: Human MER (residues 528-999; CarnaBio, 1 ng/well) was also incubated with enzymatic buffer (Cisbio) supplemented with 5 mM MgCl2 and 1 mM DTT. The mixture was added to the pre-plated compounds. The reaction was initiated upon addition of ATP at Km (40 μM). The reaction was incubated at room temperature for 60 min and stopped upon the addition of SA-XL665 and TK-antibody both diluted in EDTA-containing kinase detection buffer (Cisbio). The kinase activity was calculated as stated above and the IC50 values were reported.

[2] = molecular target: Human MET (residues 956-1390) (Homo sapiens (Human), UniProt P08581); test: Human Met kinase assay, HTRF KinEase (Example D-2); assay type: biochemical; conditions: read-out: c-Met IC50
Sequence of Human MET (residues 956-1390) (P08581 956-1390): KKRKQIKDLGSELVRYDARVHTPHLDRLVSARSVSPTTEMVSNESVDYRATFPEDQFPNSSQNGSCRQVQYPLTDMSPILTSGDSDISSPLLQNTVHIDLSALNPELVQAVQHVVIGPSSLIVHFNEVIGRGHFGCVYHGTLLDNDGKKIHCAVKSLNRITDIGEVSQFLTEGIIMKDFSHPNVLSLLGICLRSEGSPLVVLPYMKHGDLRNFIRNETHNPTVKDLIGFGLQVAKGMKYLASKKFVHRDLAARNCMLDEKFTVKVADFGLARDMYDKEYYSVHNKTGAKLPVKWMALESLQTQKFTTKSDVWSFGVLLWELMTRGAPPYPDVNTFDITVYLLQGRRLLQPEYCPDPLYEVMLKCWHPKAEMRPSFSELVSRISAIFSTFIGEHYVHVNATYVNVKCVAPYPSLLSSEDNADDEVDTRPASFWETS
Description: as §1, §2
Example D-2: Human MET (residues 956-1390; CarnaBio, 0.1 ng/well) was also incubated with enzymatic buffer (Cisbio) supplemented with 5 mM MgCl2, 1 mM DTT and 1 mM MnCl2. The mixture was added to the pre-plated compounds. […] The reaction was incubated at room temperature for 40 min and stopped upon the addition of SA-XL665 and TK-antibody both diluted in EDTA-containing kinase detection buffer (Cisbio). The kinase activity was calculated as stated above and the IC50 values were reported.

[3] = molecular target: Met (phospho-Met, HGF-stimulated PC-3 prostate cancer cells) (Homo sapiens (Human), UniProt P08581); test: Met autophosphorylation ELISA in PC-3 cells (Example F); assay type: cell-based; conditions: cellular activity; Met autophosphorylation ELISA in PC-3 cells; read-out: c-Met IC50
Sequence of Met (phospho-Met, HGF-stimulated PC-3 prostate cancer cells) (P08581 25-1390): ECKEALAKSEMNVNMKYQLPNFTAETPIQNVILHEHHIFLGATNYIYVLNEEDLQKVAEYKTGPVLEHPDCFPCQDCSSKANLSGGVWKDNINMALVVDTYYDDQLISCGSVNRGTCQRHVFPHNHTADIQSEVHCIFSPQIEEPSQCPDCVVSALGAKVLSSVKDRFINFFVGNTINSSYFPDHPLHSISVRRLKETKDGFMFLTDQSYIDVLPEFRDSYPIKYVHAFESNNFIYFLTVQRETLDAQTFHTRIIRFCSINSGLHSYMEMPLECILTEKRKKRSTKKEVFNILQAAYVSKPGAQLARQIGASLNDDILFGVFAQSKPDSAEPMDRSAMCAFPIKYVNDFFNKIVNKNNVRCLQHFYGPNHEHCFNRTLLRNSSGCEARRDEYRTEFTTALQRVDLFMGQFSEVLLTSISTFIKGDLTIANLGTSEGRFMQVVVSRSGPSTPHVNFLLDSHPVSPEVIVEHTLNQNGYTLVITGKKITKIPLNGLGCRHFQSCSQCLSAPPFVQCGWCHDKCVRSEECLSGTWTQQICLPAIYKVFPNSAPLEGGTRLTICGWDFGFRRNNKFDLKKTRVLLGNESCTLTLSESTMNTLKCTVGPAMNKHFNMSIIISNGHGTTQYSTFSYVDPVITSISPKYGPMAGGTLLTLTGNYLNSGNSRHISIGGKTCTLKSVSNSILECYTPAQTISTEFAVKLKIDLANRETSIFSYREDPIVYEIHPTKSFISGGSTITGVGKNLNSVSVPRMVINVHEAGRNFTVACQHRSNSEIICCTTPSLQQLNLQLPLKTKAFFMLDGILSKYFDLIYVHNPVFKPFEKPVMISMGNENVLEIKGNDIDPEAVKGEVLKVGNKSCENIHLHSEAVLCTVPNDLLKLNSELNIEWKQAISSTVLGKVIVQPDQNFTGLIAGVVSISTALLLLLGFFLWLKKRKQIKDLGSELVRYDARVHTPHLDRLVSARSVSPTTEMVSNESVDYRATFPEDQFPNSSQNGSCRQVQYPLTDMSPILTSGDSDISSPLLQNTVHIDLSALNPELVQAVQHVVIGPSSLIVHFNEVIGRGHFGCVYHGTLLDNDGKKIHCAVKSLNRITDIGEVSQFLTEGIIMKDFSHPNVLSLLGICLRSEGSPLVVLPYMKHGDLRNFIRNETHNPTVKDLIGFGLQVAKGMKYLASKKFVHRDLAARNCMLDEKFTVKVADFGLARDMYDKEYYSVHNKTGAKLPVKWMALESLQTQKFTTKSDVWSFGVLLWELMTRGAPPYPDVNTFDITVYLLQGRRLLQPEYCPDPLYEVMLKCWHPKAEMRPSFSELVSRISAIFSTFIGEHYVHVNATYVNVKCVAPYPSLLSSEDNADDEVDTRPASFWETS
Summary of the method: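 Compounds were tested on HGF-stimulated PC-3 cells. After 24 h culture and 3 h serum starvation, cells got compound for 1 h and 100 ng/mL HGF for 10 min, and Met tyrosine phosphorylation was measured by ELISA.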

[4] = molecular target: KDR (phospho-KDR, VEGF165-stimulated HUVEC cells) (Homo sapiens (Human), UniProt P35968); test: KDR autophosphorylation ELISA in HUVEC cells (Example G); assay type: cell-based; conditions: cellular activity; KDR autophosphorylation ELISA in HUVEC cells
Sequence of KDR (phospho-KDR, VEGF165-stimulated HUVEC cells) (P35968 20-1356): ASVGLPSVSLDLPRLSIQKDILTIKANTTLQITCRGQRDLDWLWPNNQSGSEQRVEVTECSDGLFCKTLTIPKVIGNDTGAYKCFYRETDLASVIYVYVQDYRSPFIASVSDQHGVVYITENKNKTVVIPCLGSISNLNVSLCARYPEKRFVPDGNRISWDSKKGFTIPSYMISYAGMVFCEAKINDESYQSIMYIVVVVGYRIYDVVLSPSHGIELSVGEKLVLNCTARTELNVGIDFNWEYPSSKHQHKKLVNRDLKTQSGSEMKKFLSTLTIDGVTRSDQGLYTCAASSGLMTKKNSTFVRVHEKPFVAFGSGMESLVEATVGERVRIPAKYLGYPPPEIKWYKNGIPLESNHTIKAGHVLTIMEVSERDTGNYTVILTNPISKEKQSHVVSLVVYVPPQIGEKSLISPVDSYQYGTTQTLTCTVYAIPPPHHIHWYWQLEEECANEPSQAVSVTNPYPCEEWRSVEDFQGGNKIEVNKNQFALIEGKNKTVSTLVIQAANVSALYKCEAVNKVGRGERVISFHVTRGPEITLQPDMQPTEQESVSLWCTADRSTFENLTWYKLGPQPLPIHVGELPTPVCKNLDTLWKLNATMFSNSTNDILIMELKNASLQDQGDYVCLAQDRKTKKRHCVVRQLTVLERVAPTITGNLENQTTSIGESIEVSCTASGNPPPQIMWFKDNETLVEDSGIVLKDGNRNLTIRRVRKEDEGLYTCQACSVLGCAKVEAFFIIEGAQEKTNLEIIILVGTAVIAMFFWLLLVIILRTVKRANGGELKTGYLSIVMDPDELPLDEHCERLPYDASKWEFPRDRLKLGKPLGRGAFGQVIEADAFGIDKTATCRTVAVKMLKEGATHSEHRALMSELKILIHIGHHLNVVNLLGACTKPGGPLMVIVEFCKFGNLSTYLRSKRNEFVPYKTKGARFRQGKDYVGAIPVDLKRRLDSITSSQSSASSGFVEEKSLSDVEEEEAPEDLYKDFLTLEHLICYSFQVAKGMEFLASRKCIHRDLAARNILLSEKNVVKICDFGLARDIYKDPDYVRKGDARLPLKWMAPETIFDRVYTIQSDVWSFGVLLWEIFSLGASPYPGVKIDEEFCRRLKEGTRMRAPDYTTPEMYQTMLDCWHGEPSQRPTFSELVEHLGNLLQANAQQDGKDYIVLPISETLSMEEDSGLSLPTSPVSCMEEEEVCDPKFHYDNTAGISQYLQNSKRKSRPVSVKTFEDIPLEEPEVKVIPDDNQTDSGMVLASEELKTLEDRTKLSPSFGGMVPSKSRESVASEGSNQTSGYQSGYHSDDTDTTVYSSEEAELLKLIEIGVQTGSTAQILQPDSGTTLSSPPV
Summary of the method: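 Cells seeded, grown 24 h at 37 °C, starved 24 h serum-free; cpd 8-pt curve, 0.3% DMSO, 1 h; VEGF165 100 ng/mL, 5 min; cold PBS wash, lysis with orthovanadate and protease/phosphatase inhibitors; pKDR ELISA; IC50 by 4-parameter logistic regression.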

[5] = molecular target: Mer (phospho-Mer, MERTK-transfected 293A cells) (Homo sapiens (Human), UniProt Q12866); test: Mer autophosphorylation ELISA in transient transfected 293A cells (Example H); assay type: cell-based; conditions: cellular activity; Mer autophosphorylation ELISA in transient transfected 293A cells
Sequence of Mer (phospho-Mer, MERTK-transfected 293A cells) (Q12866 21-999): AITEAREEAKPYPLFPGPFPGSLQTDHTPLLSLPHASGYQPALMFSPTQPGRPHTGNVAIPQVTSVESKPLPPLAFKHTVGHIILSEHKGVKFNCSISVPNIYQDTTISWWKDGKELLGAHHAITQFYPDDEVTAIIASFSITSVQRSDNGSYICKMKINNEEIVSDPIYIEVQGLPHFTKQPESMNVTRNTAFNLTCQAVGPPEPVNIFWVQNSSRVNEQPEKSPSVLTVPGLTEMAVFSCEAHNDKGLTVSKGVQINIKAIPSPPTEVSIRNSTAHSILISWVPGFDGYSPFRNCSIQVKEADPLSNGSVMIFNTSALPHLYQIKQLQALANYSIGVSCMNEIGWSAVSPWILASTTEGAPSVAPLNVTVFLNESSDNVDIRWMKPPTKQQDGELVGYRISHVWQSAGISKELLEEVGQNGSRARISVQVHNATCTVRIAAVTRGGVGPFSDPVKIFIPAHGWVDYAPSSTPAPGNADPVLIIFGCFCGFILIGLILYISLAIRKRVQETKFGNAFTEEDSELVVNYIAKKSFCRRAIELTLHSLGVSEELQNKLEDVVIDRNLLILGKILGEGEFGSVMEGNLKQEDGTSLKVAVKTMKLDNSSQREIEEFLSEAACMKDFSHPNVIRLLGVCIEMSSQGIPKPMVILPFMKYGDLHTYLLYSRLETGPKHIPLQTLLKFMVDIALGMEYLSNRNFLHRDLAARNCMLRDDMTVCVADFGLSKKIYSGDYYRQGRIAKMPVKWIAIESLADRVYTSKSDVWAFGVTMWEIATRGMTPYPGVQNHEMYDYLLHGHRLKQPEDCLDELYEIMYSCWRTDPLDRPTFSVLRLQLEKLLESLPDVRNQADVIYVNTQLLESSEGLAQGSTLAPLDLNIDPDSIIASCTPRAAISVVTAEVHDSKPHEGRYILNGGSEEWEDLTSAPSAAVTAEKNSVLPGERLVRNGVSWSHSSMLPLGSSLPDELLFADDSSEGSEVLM
Summary of the method: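 Human MERTK transiently transfected into 293A cells; compounds as 8-point dose curve in serum-free medium (0.3% DMSO final), 1 h. Lysates assayed by phospho-Mer sandwich ELISA against phospho-Mer standard; DMSO = 100%, reference inhibitor = 0% activity; IC50 from 4-parameter logistic fit.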

[6] = protocol of Example D-2 (other compounds)

Sequence of Human MER (residues 528-999) (Q12866 528-999): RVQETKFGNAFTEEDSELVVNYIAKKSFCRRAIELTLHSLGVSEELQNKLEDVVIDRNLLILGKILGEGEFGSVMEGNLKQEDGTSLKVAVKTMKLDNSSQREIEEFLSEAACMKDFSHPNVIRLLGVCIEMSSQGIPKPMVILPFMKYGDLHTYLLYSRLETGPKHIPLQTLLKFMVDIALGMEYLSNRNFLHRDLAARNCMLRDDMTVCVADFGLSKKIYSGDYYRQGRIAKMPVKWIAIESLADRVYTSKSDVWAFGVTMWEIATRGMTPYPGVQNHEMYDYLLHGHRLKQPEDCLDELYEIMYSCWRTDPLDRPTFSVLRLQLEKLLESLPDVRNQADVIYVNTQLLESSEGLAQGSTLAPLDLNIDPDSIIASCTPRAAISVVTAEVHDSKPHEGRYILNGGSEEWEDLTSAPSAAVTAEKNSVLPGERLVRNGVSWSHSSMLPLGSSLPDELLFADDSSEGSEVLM

Compound	IC50 [1] [nM]	IC50 [2, 6] [nM]	IC50 [3] [nM]	IC50 [4] [nM]	IC50 [5] [nM]	IC50 ([2]; protocol of Example D-2) [nM]
CNn1cc(C(=O)Nc2ccc(Oc3ccnc4cc(OC)c(OC)nc34)c(F)c2)c(=O)c(-c2ccc(F)cc2)c1 [Compound 135, N-[4-[(6,7-Dimethoxy-1,5-naphthyridin-4-yl)oxy]-3-fluorophenyl]-5-(4-fluorophenyl)-1-(methylamino)-4-oxopyridine-3-carboxamide]	< 100	< 100	< 100	< 100	< 100	
COc1nc2c(Oc3ccc(NC(=O)c4cnc(C)c(-c5ccc(F)cc5)c4O)cc3F)ccnc2cc1-c1cnn(C(F)F)c1 [Compound 607, N-[4-[[7-[1-(Difluoromethyl)pyrazol-4-yl]-6-methoxy-1,5-naphthyridin-4-yl]oxy]-3-fluorophenyl]-5-(4-fluorophenyl)-4-hydroxy-6-methylpyridine-3-carboxamide]			< 100	< 100	< 100	< 100
COc1cc2nccc(Oc3ccc(NC(=O)c4cn(-c5cnn(C)c5)cc(-c5ccc(F)cc5)c4=O)cc3F)c2nc1OC [Compound 51, N-[4-[(6,7-Dimethoxy-1,5-naphthyridin-4-yl)oxy]-3-fluorophenyl]-5-(4-fluorophenyl)-1-(1-methylpyrazol-4-yl)-4-oxopyridine-3-carboxamide]		< 100	< 100	> 300	< 100	
COc1cc2nccc(Oc3ccc(NC(=O)c4c5n(cc(-c6ccc(F)cc6)c4=O)CCC5)cc3F)c2nc1OC [Compound 404, N-[4-[(6,7-dimethoxy-1,5-naphthyridin-4-yl)oxy]-3-fluorophenyl]-6-(4-fluorophenyl)-7-oxo-2,3-dihydro-1H-indolizine-8-carboxamide]	< 100	< 100	< 100	< 100	< 100	
Cc1ncc(C(=O)Nc2ccc(Oc3ccnc4cc(Br)cnc34)c(F)c2)c(O)c1-c1ccc(F)cc1 [Compound 133, N-[4-[(7-Bromo-1,5-naphthyridin-4-yl)oxy]-3-fluorophenyl]-5-(4-fluorophenyl)-4-hydroxy-6-methylpyridine-3-carboxamide]		< 100	100 to 300	100 to 300	100 to 300	
COc1cc2nccc(Oc3ccc(NC(=O)c4cn(N(C)C)cc(-c5ccc(F)cc5)c4=O)cc3F)c2nc1OC [Compound 136, N-[4-[(6,7-Dimethoxy-1,5-naphthyridin-4-yl)oxy]-3-fluorophenyl]-1-(dimethylamino)-5-(4-fluorophenyl)-4-oxopyridine-3-carboxamide]	< 100	< 100	< 100	< 100	< 100	
COc1cc2nccc(Oc3ccc(NC(=O)c4cn(CC(F)(F)F)cc(-c5ccc(F)cc5)c4=O)cc3F)c2nc1OC [Compound 49, N-[4-[(6,7-Dimethoxy-1,5-naphthyridin-4-yl)oxy]-3-fluorophenyl]-5-(4-fluorophenyl)-4-oxo-1-(2,2,2-trifluoroethyl)pyridine-3-carboxamide]		< 100	< 100	> 300	< 100	
COc1cc2nccc(Oc3ccc(NC(=O)c4cn(O)cc(-c5ccc(F)cc5)c4=O)cc3F)c2nc1OC [Compound 134, N-[4-[(6,7-Dimethoxy-1,5-naphthyridin-4-yl)oxy]-3-fluorophenyl]-5-(4-fluorophenyl)-1-hydroxy-4-oxopyridine-3-carboxamide]		< 100	> 300	< 100	100 to 300	
COc1cc2nccc(Oc3ccc(NC(=O)c4cn(CCn5ccnc5)cc(-c5ccc(F)cc5)c4=O)cc3F)c2nc1OC [Compound 159, N-[4-[(6,7-Dimethoxy-1,5-naphthyridin-4-yl)oxy]-3-fluorophenyl]-5-(4-fluorophenyl)-1-(2-imidazol-1-ylethyl)-4-oxopyridine-3-carboxamide]		< 100	100 to 300	> 300	< 100	
COc1cc2nccc(Oc3ccc(NC(=O)c4cn(N=C(N(C)C)N(C)C)cc(-c5ccc(F)cc5)c4=O)cc3F)c2nc1OC [Compound 137, 1-[bis(Dimethylamino)methylideneamino]-N-[4-[(6,7-dimethoxy-1,5-naphthyridin-4-yl)oxy]-3-fluorophenyl]-5-(4-fluorophenyl)-4-oxopyridine-3-carboxamide]		< 100	< 100	100 to 300	< 100	
COc1cnc2c(Oc3ccc(NC(=O)c4cn(C(C)C)cc(-c5ccc(F)cc5)c4=O)cc3)ccnc2c1 [Compound 145, 5-(4-Fluorophenyl)-N-[4-[(7-methoxy-1,5-naphthyridin-4-yl)oxy]phenyl]-4-oxo-1-propan-2-ylpyridine-3-carboxamide]		< 100	< 100		< 100	
COc1nc2c(Oc3ccc(NC(=O)c4cnc(C)c(-c5ccc(F)cc5)c4O)cc3F)ccnc2cc1-c1cccnc1 [Compound 604, N-[3-Fluoro-4-[(6-methoxy-7-pyridin-3-yl-1,5-naphthyridin-4-yl)oxy]phenyl]-5-(4-fluorophenyl)-4-hydroxy-6-methylpyridine-3-carboxamide hydrochloride]			< 100	< 100	< 100	< 100
COc1cc2nccc(Oc3ccc(NC(=O)c4cn(C5CCC5)cc(-c5ccc(F)cc5)c4=O)cc3F)c2nc1OC [Compound 50, 1-Cyclobutyl-N-[4-[(6,7-dimethoxy-1,5-naphthyridin-4-yl)oxy]-3-fluorophenyl]-5-(4-fluorophenyl)-4-oxopyridine-3-carboxamide]		< 100	< 100	100 to 300	< 100	
CNC(=O)c1cc2c(Oc3ccc(NC(=O)c4cnc(C)c(-c5ccc(F)cc5)c4O)cc3)ccnc2cc1OC [Compound 540, 4-[4-[[5-(4-fluorophenyl)-4-hydroxy-6-methylpyridine-3-carbonyl]amino]phenoxy]-7-methoxy-N-methylquinoline-6-carboxamide]			100 to 300	< 100	< 100	< 100
COc1cnc2c(Oc3ccc(NC(=O)c4c(C)nc(C)c(-c5ccc(F)cc5)c4O)cc3)ccnc2c1 [Compound 158, 5-(4-Fluorophenyl)-4-hydroxy-N-[4-[(7-methoxy-1,5-naphthyridin-4-yl)oxy]phenyl]-2,6-dimethylpyridine-3-carboxamide]		< 100	< 100	< 100	< 100	
COc1cc2nccc(Oc3ccc(NC(=O)c4cn(C5CN(C(=O)OC(C)(C)C)C5)cc(-c5ccc(F)cc5)c4=O)cc3F)c2nc1OC [Compound 114, tert-Butyl 3-[3-[[4-[(6,7-dimethoxy-1,5-naphthyridin-4-yl)oxy]-3-fluorophenyl]carbamoyl]-5-(4-fluorophenyl)-4-oxopyridin-1-yl]azetidine-1-carboxylate]		< 100				
COc1nc2c(Oc3ccc(NC(=O)c4cn(C(C)C)cc(-c5ccc(F)cc5)c4=O)cc3F)ccnc2cc1-c1cnn(C(F)F)c1 [Compound 608, N-[4-[[7-[1-(Difluoromethyl)pyrazol-4-yl]-6-methoxy-1,5-naphthyridin-4-yl]oxy]-3-fluorophenyl]-5-(4-fluorophenyl)-4-oxo-1-propan-2-ylpyridine-3-carboxamide]			< 100	< 100	< 100	< 100
